From US10919916B2, “Boron-containing small molecules” (Bill & Melinda Gates Foundation, priority 2016, dated 2021)
≈ marks a conversion by molar mass, not a printed value. Like-named read-outs stand apart in the source and are kept apart here.

Key:
[1] = tested on: Staphylococcus aureus, MRSA (ATCC 33591); assay: Antibacterial MIC assay (microbroth dilution, CLSI); format: cell-based; settings: read-out: MIC Staphylococcus aureus, MRSA (ATCC 33591)
Text: (§1) All MIC testing of bacteria followed the Clinical and Laboratory Standards Institute (CLSI) guidelines for antimicrobial testing of aerobic bacteria (Methods for Dilution Antimicrobial Susceptibility Tests for Bacteria that Grow Aerobically; Approved Standard—Tenth Edition, M07-A10; Performance Standards for Antimicrobial Susceptibility Testing; Twenty-fifth Informational Supplement, M100-S25).
(§2) Briefly, the microbroth dilution MIC method was used to quantitatively measure the in vitro antibacterial activity of a compound against a given bacterial isolate. The following bacterial strains were evaluated: Staphylococcus aureus, MRSA (ATCC 33591) and Streptococcus pneumoniae (ATCC 49619). Bacteria were grown in cation-adjusted Mueller-Hinton broth, with additions as required per species growth requirements (e.g. 3% lysed horse blood for fastidious organisms such as S. pneumoniae). A direct colony suspension in saline was prepared from colonies on an overnight agar plate to achieve a turbidity equivalent to 0.5 McFarland standard, which was subsequently diluted into the assay plate to achieve 5×10^5 CFU/mL. Assays plates were prepared by 2-fold dilution of compound across the plate and included a positive growth control.

[2] = tested on: Streptococcus pneumoniae (ATCC 49619); assay: as above; format: cell-based
Text: as §1
as §2, with “The following bacterial strains were evaluated: Staphylococcus aureus, MRSA (ATCC 33591) and Streptococcus pneumoniae (ATCC 49619).” left out

[3] = ATCC49619, read-out: MIC Streptococcus pneumoniae (ATCC 49619)
[4] = microbroth dilution, cation-adjusted Mueller-Hinton broth, 35° C. for 16-20 hours
[5] = ATCC49619, microbroth dilution, 3% lysed horse blood, 35° C. for 16-20 hours, read-out: MIC Streptococcus pneumoniae (ATCC 49619)

MIC [1, 4] [µg/mL] | MIC [2, 5] [µg/mL] | SMILES | MIC [1] [µg/mL] | MIC [2, 3] [µg/mL]
 |  | C=C[C@]1(C)C[C@@H](OC(=O)COc2cc3c(cc2F)B(O)OC3)[C@]2(C)[C@H](C)CC[C@]3(CCC(=O)[C@H]32)[C@@H](C)[C@@H]1O [Compound 34, (3aR,4R,5R,7S,8S,9R,9aS,12R)-8-hydroxy-4,7,9,12-tetramethyl-3-oxo-7-vinyldecahydro-4,9a-propanocyclopenta[8]annulen-5-yl 2-((6-fluoro-1-hydroxy-1,3-dihydrobenzo[c][1,2]oxaborol-5-yl)oxy)acetate] | < 0.25 | 0.5 to 2 (≈ 0.946 to 3.78 µM)
 |  | C=C[C@]1(C)C[C@@H](OC(=O)C[S@+]([O-])c2ccc3c(c2F)B(O)OC3)[C@]2(C)[C@H](C)CC[C@]3(CCC(=O)[C@H]32)[C@@H](C)[C@@H]1O [Compound 66, (3aR,4R,5R,7S,8S,9R,9aS,12R)-8-hydroxy-4,7,9,12-tetramethyl-3-oxo-7-vinyldecahydro-4,9a-propanocyclopenta[8]annulen-5-yl 2-((S)-(7-fluoro-1-hydroxy-1,3-dihydrobenzo[c][1,2]oxaborol-6-yl)sulfinyl)acetate] | 0.5 to 2 (≈ 0.892 to 3.57 µM) | 4 to 32 (≈ 7.14 to 57.1 µM)
< 0.25 | < 0.25 | C=C[C@]1(C)C[C@@H](OC(=O)COc2cc3c(cc2OC)COB3O)[C@]2(C)[C@H](C)CC[C@]3(CCC(=O)[C@H]32)[C@@H](C)[C@@H]1O [Compound 15, (3aR,4R,5R,7S,8S,9R,9aS,12R)-8-hydroxy-4,7,9,12-tetramethyl-3-oxo-7-vinyldecahydro-4,9a-propanocyclopenta[8]annulen-5-yl 2-((1-hydroxy-5-methoxy-1,3-dihydrobenzo[c][1,2]oxaborol-6-yl)oxy)acetate] |  | 
 |  | C=C[C@]1(C)C[C@@H](OC(=O)NCc2ccc3c(c2F)B(O)OC3)[C@]2(C)[C@H](C)CC[C@]3(CCC(=O)[C@H]32)[C@@H](C)[C@@H]1O [Compound 57, (3aR,4R,5R,7S,8S,9R,9aS,12R)-8-hydroxy-4,7,9,12-tetramethyl-3-oxo-7-vinyldecahydro-4,9a-propanocyclopenta[8]annulen-5-yl ((7-fluoro-1-hydroxy-1,3-dihydrobenzo[c][1,2]oxaborol-6-yl)methyl)carbamate] | < 0.25 | 0.5 to 2 (≈ 0.948 to 3.79 µM)
 |  | C=C[C@]1(C)C[C@@H](OC(=O)COc2ccc3c(c2C)B(O)N(C(=O)OC)N=C3)[C@]2(C)[C@H](C)CC[C@]3(CCC(=O)[C@H]32)[C@@H](C)[C@@H]1O [Compound 94, Methyl 1-hydroxy-7-(2-(((3aR,4R,5R,7S,8S,9R,9aS,12R)-8-hydroxy-4,7,9,12-tetramethyl-3-oxo-7-vinyldecahydro-4,9a-propanocyclopenta[8]annulen-5-yl)oxy)-2-oxoethoxy)-8-methylbenzo[d][1,2,3]diazaborinine-2(1H)-carboxylate] | < 0.25 | 0.5 to 2 (≈ 0.841 to 3.36 µM)
 |  | C=C[C@]1(C)C[C@@H](OC(=O)COc2ccc3c(c2F)B(O)OC3)[C@]2(C)[C@H](C)CC[C@]3(CCC(=O)[C@H]32)[C@@H](C)[C@@H]1O [Compound 2, (3aR,4R,5R,7S,8S,9R,9aS,12R)-8-hydroxy-4,7,9,12-tetramethyl-3-oxo-7-vinyldecahydro-4,9a-propanocyclopenta[8]annulen-5-yl 2-((7-fluoro-1-hydroxy-1,3-dihydrobenzo[c][1,2]oxaborol-6-yl)oxy)acetate] | < 0.25 | 0.5 to 2 (≈ 0.946 to 3.78 µM)
 |  | C=C[C@]1(C)C[C@@H](OC(=O)COc2ccc3c(c2)COB3O)[C@]2(C)[C@H](C)CC[C@]3(CCC(=O)[C@H]32)[C@@H](C)[C@@H]1O [Compound 32, (3aR,4R,5R,7S,8S,9R,9aS,12R)-8-hydroxy-4,7,9,12-tetramethyl-3-oxo-7-vinyldecahydro-4,9a-propanocyclopenta[8]annulen-5-yl 2-((1-hydroxy-1,3-dihydrobenzo[c][1,2]oxaborol-5-yl)oxy)acetate] | < 0.25 | 0.5 to 2 (≈ 0.98 to 3.92 µM)
 |  | C=C[C@]1(C)C[C@@H](OC(=O)CNc2cc3c(cc2F)COB3O)[C@]2(C)[C@H](C)CC[C@]3(CCC(=O)[C@H]32)[C@@H](C)[C@@H]1O [Compound 46, (3aR,4R,5R,7S,8S,9R,9aS,12R)-8-hydroxy-4,7,9,12-tetramethyl-3-oxo-7-vinyldecahydro-4,9a-propanocyclopenta[8]annulen-5-yl (5-fluoro-1-hydroxy-1,3-dihydrobenzo[c][1,2]oxaborol-6-yl)glycinate] | < 0.25 | 0.5 to 2 (≈ 0.948 to 3.79 µM)
 |  | C=C[C@]1(C)C[C@@H](OC(=O)COc2ccc3c(c2F)B(O)N(C(C)=O)N=C3)[C@]2(C)[C@H](C)CC[C@]3(CCC(=O)[C@H]32)[C@@H](C)[C@@H]1O [Compound 89, (3aR,4R,5R,7S,8S,9R,9aS,12R)-8-hydroxy-4,7,9,12-tetramethyl-3-oxo-7-vinyldecahydro-4,9a-propanocyclopenta[8]annulen-5-yl 2-((2-acetyl-8-fluoro-1-hydroxy-1,2-dihydrobenzo[d][1,2,3]diazaborinin-7-yl)oxy)acetate] | < 0.25 | < 0.25
< 0.25 | < 0.25 | C=C[C@]1(C)C[C@@H](OC(=O)COc2cc3c(cc2C)COB3O)[C@]2(C)[C@H](C)CC[C@]3(CCC(=O)[C@H]32)[C@@H](C)[C@@H]1O [Compound 10, (3aR,4R,5R,7S,8S,9R,9aS,12R)-8-hydroxy-4,7,9,12-tetramethyl-3-oxo-7-vinyldecahydro-4,9a-propanocyclopenta[8]annulen-5-yl 2-((1-hydroxy-5-methyl-1,3-dihydrobenzo[c][1,2]oxaborol-6-yl)oxy)acetate] |  | 
 |  | C=C[C@]1(C)C[C@@H](OC(=O)CNCc2ccc3c(c2)B(O)OC3)[C@]2(C)[C@H](C)CC[C@]3(CCC(=O)[C@H]32)[C@@H](C)[C@@H]1O [Compound 59, (3aR,4R,5R,7S,8S,9R,9aS,12R)-8-hydroxy-4,7,9,12-tetramethyl-3-oxo-7-vinyldecahydro-4,9a-propanocyclopenta[8]annulen-5-yl ((1-hydroxy-1,3-dihydrobenzo[c][1,2]oxaborol-6-yl)methyl)glycinate] | 0.5 to 2 (≈ 0.955 to 3.82 µM) | 4 to 32 (≈ 7.64 to 61.1 µM)
 |  | C=C[C@]1(C)C[C@@H](OC(=O)COc2cc(F)c3c(c2)B(O)OC3)[C@]2(C)[C@H](C)CC[C@]3(CCC(=O)[C@H]32)[C@@H](C)[C@@H]1O [Compound 4, (3aR,4R,5R,7S,8S,9R,9aS,12R)-8-hydroxy-4,7,9,12-tetramethyl-3-oxo-7-vinyldecahydro-4,9a-propanocyclopenta[8]annulen-5-yl 2-((4-fluoro-1-hydroxy-1,3-dihydrobenzo[c][1,2]oxaborol-6-yl)oxy)acetate] | < 0.25 | 0.5 to 2 (≈ 0.946 to 3.78 µM)
 |  | C=C[C@]1(C)C[C@@H](OC(=O)COc2cc(C)c3c(c2)B(O)OC3)[C@]2(C)[C@H](C)CC[C@]3(CCC(=O)[C@H]32)[C@@H](C)[C@@H]1O [Compound 11, (3aR,4R,5R,7S,8S,9R,9aS,12R)-8-hydroxy-4,7,9,12-tetramethyl-3-oxo-7-vinyldecahydro-4,9a-propanocyclopenta[8]annulen-5-yl 2-((1-hydroxy-4-methyl-1,3-dihydrobenzo[c][1,2]oxaborol-6-yl)oxy)acetate] | < 0.25 | < 0.25
